Assay results as given in patent US5834463A, “Condensed heterocyclic compounds, their production and use” (Takeda Chemical Industries, Ltd., priority 1994, dated 1998).

The compounds below were run against T1, human GnRH receptor (Homo sapiens, UniProt P30968) (assay: Test for inhibition of ^125 I-leuprorelin binding to human GnRH receptor). Settings: membrane fraction of CHO cells expressing human GnRH receptors, 25° C., 60 minutes, read-out: Binding Inhibitory Activity (IC50, μM) for human GnRH receptor.
T1 construct: expressed in transfected cells; host or cells: CHO (Chinese Hamster Ovary) cells, membrane fraction
T1 sequence (P30968 1-328): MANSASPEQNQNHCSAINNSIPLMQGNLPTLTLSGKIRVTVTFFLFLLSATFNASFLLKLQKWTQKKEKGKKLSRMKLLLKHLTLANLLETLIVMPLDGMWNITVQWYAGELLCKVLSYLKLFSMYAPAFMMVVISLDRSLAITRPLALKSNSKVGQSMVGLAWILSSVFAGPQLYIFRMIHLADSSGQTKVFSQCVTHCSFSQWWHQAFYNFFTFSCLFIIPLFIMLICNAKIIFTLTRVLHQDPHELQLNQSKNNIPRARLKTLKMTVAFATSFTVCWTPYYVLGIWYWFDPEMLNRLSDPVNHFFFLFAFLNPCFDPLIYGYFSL
Description: (A) Preparation of ^125 I-leuprorelin
Ten μl of a 3×10^-4 M aqueous solution of leuprorelin and 10μl of 0.01 mg/ml lactoperoxidase in 0.1M Hepes buffer (pH7.4) were put in a tube, to which was added 10 μl of an Na^125 I solution (37 MBq). The mixture was stirred, to which was added 10 μl of 0.001% H2 O2, followed by allowing the reaction to proceed for 20 minutes at room temperature. To the reaction mixture was added 700 μl of a 0.05% TFA solution to stop the reaction. The product of was purified by means of a reverse-phase HPLC. Conditions of HPLC were as follows:
(D) Preparation of membrane fraction of CHO (Chinese Hamster Ovary) cells containing human GnRH receptors
CHO cells (10^9) expressing human GnRH receptors were suspended in a phosphate-buffered saline supplemented with 5 mM EDTA. The suspension was subjected to centrifugal separation for 5 minutes at 100×g. To the pellet of cells was added 10 ml of a homogenate buffer for cells (10 mM NaHCO3, 5 mM EDTA, pH 7.5), which was homogenated by using a Polytron homogenizer. Centrifugal separation was conducted for 15 minutes at 400×g. The supernatant was taken into an ultracentrifugal tube, which was subjected to centrifuge for one hour at 100,000×g to give precipitate of the membrane fraction. The precipitate was suspended in 2 ml of the assay buffer, which was centrifuged for one hour at 100,000×g. The membrane fraction recovered as precipitate was again suspended in 20 ml of the assay buffer, which was distributed to vials and stored at -80° C. until used.
(E) Determination of inhibitory rate of ^125 I-leuprorelin binding
In the cases of using rat and human pituitary membrane fractions prepared in (B) and (D), they were respectively diluted with the assay buffer to 200 μg/ml and 188 μl each was distributed to tubes. In the case of using bovine pituitary membrane fraction prepared in (C), it was diluted with the assay buffer to 750 μg/ml and 188 μl each was distributed into tubes. In the case where the membrane fraction of anterior lobes of rat pituitary gland was used, 2 μl of a 0.1 mM compound dissolved in 60% DMSO (dimethylsulfoxide) and 10 μl of 38 nM ^125 I-leuprorelin were added thereto simultaneously. In the case where the membrane fraction of anterior lobes of bovine pituitary gland and the membrane fraction derived from the CHO cells expressing human GnRH receptors were used, 2 μl of a 2 mM compound dissolved in 60% DMSO and 10 μl of 38 nM ^125 I-leuproprelin were added simultaneously. For determining the maximum binding amount, a solution for reaction supplemented with 2 μl of 60% DMSO and 10 μl of 38 nM ^125 I-leuprorelin was prepared. And, for determining the amount of non-specific binding, a solution for reaction supplemented with 2 μl of 100 μM leuprorelin dissolved in 60% DMSO and 10 μl of 38 nM ^125 I-leuprorelin were also prepared simultaneously.
In the cases where membrane fractions of anterior lobes of rat and bovine pituitary were used, reaction was allowed to proceed at 4° C. for 90 minutes, while in the case where the membrane fraction derived from the CHO cells expressing human GnRH receptor was used, reaction was allowed to proceed at 25° C. for 60 minutes. The reaction mixtures were respectively subjected to filtration under sucking with Whatman glass filter (GF-F) processed with polyethyleneimine. After completing the filtration, radioactivity of the ^125 I-leuprorelin remaining on the filter paper was measured with a γ-counter.
By calculation of (TB-SB)/(TB-NSB)×100 (SB: radioactivity obtained when a compound was added, TB: radioactivity for the maximum binding, NSB: radioactivity for the non-specific binding), the binding inhibitory rate of each test compound was determined. Besides, the inhibitory rates were determined by changing the concentrations of test compounds, and the concentration of a test compound inhibiting the specific binding by 50% (IC50 value) was calculated by way of Hill plot.
`O=C1c2ccc([N+](=O)[O-])cc2C(=O)N1CC(=O)N1c2ccccc2N(Cc2ccccc2)C(=O)[C@H]2CCC[C@H]21` (relative stereo) [compound 49] was tested, and the IC50 was 2 µM.
`O=C1c2ccccc2C(=O)N1CCC(=O)N1c2ccccc2N(Cc2ccccc2)C(=O)[C@H]2CCC[C@H]21` (relative stereo) [compound 50] gave an IC50 of 24 µM.
In the case of `O=C1c2ccccc2C(=O)N1CCCC(=O)N1c2ccccc2N(Cc2ccccc2)C(=O)[C@H]2CCC[C@H]21` (relative stereo) [compound 51], the IC50 was 12 µM.
Work on `O=C1c2ccc(Cl)cc2C(=O)N1CC(=O)N1c2ccccc2N(Cc2ccccc2)C(=O)[C@H]2CCC[C@H]21` (relative stereo) [compound 69] yielded an IC50 of 2 µM.
`O=C1c2ccc(F)cc2C(=O)N1CC(=O)N1c2ccccc2N(Cc2ccccc2)C(=O)[C@H]2CCC[C@H]21` (relative stereo) [compound 70] gave an IC50 of 2 µM.
Work on `Cc1ccc2c(c1)C(=O)N(CC(=O)N1c3ccccc3N(Cc3ccccc3)C(=O)[C@H]3CCC[C@H]31)C2=O` (relative stereo) [compound 71] yielded an IC50 of 9 µM.
`O=C1c2cccc([N+](=O)[O-])c2C(=O)N1CC(=O)N1c2ccccc2N(Cc2ccccc2)C(=O)[C@H]2CCC[C@H]21` (relative stereo) [compound 72] gave an IC50 of 6 µM.
`O=C1c2cccc(O)c2C(=O)N1CC(=O)N1c2ccccc2N(Cc2ccccc2)C(=O)[C@H]2CCC[C@H]21` (relative stereo) [compound 73] was tested, and the IC50 was 9 µM.
In the case of `O=C1c2cccc3cccc(c23)C(=O)N1CC(=O)N1c2ccccc2N(Cc2ccccc2)C(=O)[C@H]2CCC[C@H]21` (relative stereo) [compound 75], the IC50 was 3 µM.
In the case of `O=C1Cc2ccccc2C(=O)N1CC(=O)N1c2ccccc2N(Cc2ccccc2)C(=O)[C@H]2CCC[C@H]21` (relative stereo) [compound 77], the IC50 was 5 µM.
Compound `O=C1c2cccnc2C(=O)N1CC(=O)N1c2ccccc2N(Cc2ccccc2)C(=O)[C@H]2CCC[C@H]21` (relative stereo) [compound 78] has an IC50 of 5 µM.
Compound `O=C1[C@H]2CC=CC[C@H]2C(=O)N1CC(=O)N1c2ccccc2N(Cc2ccccc2)C(=O)[C@H]2CCC[C@H]21` (relative stereo) [compound 80] has an IC50 of 9 µM.
`COc1cc(OC)cc(C(=O)NCC(=O)N2c3ccccc3N(Cc3ccccc3)C(=O)[C@H]3CCC[C@H]32)c1` (relative stereo) [compound 87] was tested, and the IC50 was 16 µM.
For `Nc1cccc2c1C(=O)N(CC(=O)N1c3ccccc3N(Cc3ccccc3)C(=O)[C@H]3CCC[C@H]31)C2=O` (relative stereo) [compound 106], the IC50 was 5 µM.
In the case of `COC(=O)c1ccc2c(c1)C(=O)N(CC(=O)N1c3ccccc3N(Cc3ccccc3)C(=O)[C@H]3CCC[C@H]31)C2=O` (relative stereo) [compound 108], the IC50 was 8 µM.
Work on `CC(=O)N(CC(=O)N1c2ccccc2N(Cc2ccccc2)C(=O)[C@H]2CCC[C@H]21)C(=O)c1ccccc1` (relative stereo) [compound 109] yielded an IC50 of 6 µM.
For `O=C1c2ccccc2C(=O)N1CC(=O)N1c2ccccc2N(Cc2cccc3ccccc23)C(=O)[C@H]2CCC[C@H]21` (relative stereo) [compound 113], the IC50 was 1 µM.
`O=C1c2ccccc2C(=O)N1CC(=O)N1c2ccccc2N(Cc2ccc3ccccc3c2)C(=O)[C@H]2CCC[C@H]21` (relative stereo) [compound 114] showed an IC50 of 0.6 µM.
For `O=C1c2ccccc2C(=O)N1CC(=O)N1c2ccccc2N(Cc2ccccn2)C(=O)[C@H]2CCC[C@H]21` (relative stereo) [compound 118], the IC50 was 2 µM.
`O=C1c2ccccc2C(=O)N1CC(=O)N1c2ccccc2N(Cc2cccnc2)C(=O)[C@H]2CCC[C@H]21` (relative stereo) [compound 119] gave an IC50 of 10 µM.
For `O=C1c2ccccc2C(=O)N1CC(=O)N1c2ccccc2N(Cc2ccncc2)C(=O)[C@H]2CCC[C@H]21` (relative stereo) [compound 120], the IC50 was 4 µM.
In the case of `O=C1c2ccncc2C(=O)N1CC(=O)N1c2ccccc2N(Cc2ccccc2)C(=O)[C@H]2CCC[C@H]21` (relative stereo) [compound 128], the IC50 was 15 µM.
With `O=C1Cc2ccccc2N1CC(=O)N1c2ccccc2N(Cc2ccccc2)C(=O)[C@H]2CCC[C@H]21` (relative stereo) [compound 136] the IC50 was 15 µM.
With `O=C1[C@H]2CCC[C@H]2N(C(=O)CNCc2ccccc2)c2ccccc2N1Cc1ccccc1` (relative stereo) [compound 138] the IC50 was 14 µM.
Compound `CN(CC(=O)N1c2ccccc2N(Cc2ccccc2)C(=O)[C@H]2CCC[C@H]21)Cc1ccccc1` (relative stereo) [compound 139] has an IC50 of 11 µM.
Compound `O=C(c1ccccc1)N(CC(=O)N1c2ccccc2N(Cc2ccccc2)C(=O)[C@H]2CCC[C@H]21)Cc1ccccc1` (relative stereo) [compound 141] has an IC50 of 14 µM.
Work on `O=C1c2ccccc2C(=O)N1CC(=O)N1c2ccccc2N(Cc2ccccc2)C(=O)[C@H]2CCCC[C@H]21` (relative stereo) [compound 168] yielded an IC50 of 3 µM.
Work on `O=C1c2ccccc2C(=O)N1CC(=O)N1c2ccccc2N(Cc2ccc(Cl)cc2)C(=O)[C@H]2CCC[C@H]21` (relative stereo) [compound 169] yielded an IC50 of 2 µM.
For `O=C1C2=C(CCCC2)C(=O)N1CC(=O)N1c2ccccc2N(Cc2cccc3ccccc23)C(=O)[C@H]2CCC[C@H]21` (relative stereo) [compound 170], the IC50 was 0.6 µM.
For `O=C1C2=C(CCCC2)C(=O)N1CC(=O)N1c2ccccc2N(Cc2ccc3ccccc3c2)C(=O)[C@H]2CCC[C@H]21` (relative stereo) [compound 171], the IC50 was 0.3 µM.
Compound `CC1=C(C)C(=O)N(CC(=O)N2c3ccccc3N(Cc3ccccc3)C(=O)[C@H]3CCC[C@H]32)C1=O` (relative stereo) [compound 173] has an IC50 of 7 µM.
With `O=C1C2=C(CCC2)C(=O)N1CC(=O)N1c2ccccc2N(Cc2ccccc2)C(=O)[C@H]2CCC[C@H]21` (relative stereo) [compound 176] the IC50 was 2 µM.
`O=C1c2ccccc2C(=O)N1CC(=O)N1c2ccccc2N(Cc2ccc(-c3ccccc3)cc2)C(=O)[C@H]2CCC[C@H]21` (relative stereo) [compound 182] gave an IC50 of 2 µM.
`O=C1c2ccccc2C(=O)N1CC(=O)N1c2ccccc2N(Cc2ccc3ccccc3n2)C(=O)[C@H]2CCC[C@H]21` (relative stereo) [compound 184] gave an IC50 of 0.8 µM.
With `O=C1c2ccccc2C(=O)N1CC(=O)N1c2ccccc2N(Cc2ccc(F)cc2)C(=O)[C@H]2CCC[C@H]21` (relative stereo) [compound 191] the IC50 was 2 µM.
With `O=C1c2ccccc2C(=O)N1CC(=O)N1c2ccccc2N(Cc2ccccc2F)C(=O)[C@H]2CCC[C@H]21` (relative stereo) [compound 194] the IC50 was 3 µM.
With `O=C1c2ccccc2C(=O)N1CC(=O)N1c2ccccc2N(Cc2ccc([N+](=O)[O-])cc2)C(=O)[C@H]2CCC[C@H]21` (relative stereo) [compound 195] the IC50 was 0.5 µM.
In the case of `O=C1c2ccccc2C(=O)N1CC(=O)N1c2ccccc2N(Cc2cccc([N+](=O)[O-])c2)C(=O)[C@H]2CCC[C@H]21` (relative stereo) [compound 209], the IC50 was 2 µM.
